Source: patent US8053452B2, “Substituted isoxazoline or enone oxime compound, and pest control agent” (Nissan Chemical Industries, Ltd., priority 2007, dated 2011)
Like-named read-outs stand apart in the source and are kept apart here.

How the values were obtained:
Spodoptera litura = assay: Mortality test for Spodoptera litura; type: in vivo; details: 144 h
Procedure: (§1) A 10% emulsifiable concentrate of the compound of the present invention (depending on the type of the compound, a 10% wettable powder was subjected to the test) was diluted with water containing a spreader to prepare a drug solution in a concentration of 10 ppm. In this drug solution, a leaf of cabbage was immersed for about 10 seconds and was air-dried and then put into a petri dish. In the petri dish, five 2 instar larvae of Spodoptera litura per petri dish were released and the petri dish was capped and stored in a thermostatic room of 25° C. The number of killed larvae after 6 days was counted and the mortality was calculated from the same calculation formula as that in Test Example 1. Here, the test was carried out with two replications.

Helicoverpa armigera = assay: Mortality test for Helicoverpa armigera; type: in vivo; details: 144 h, drug solution 100 ppm, cabbage leaf immersed, 2 instar larva, after 6 days
Procedure: as §1, with “of 100” for “of 10”, “dish, one” for “dish, five”, “instar larva” for “instar larvae”, “of Helicoverpa armigera” for “of Spodoptera litura”, “dish was” for “dish were”, “with 12” for “with two”

Plutella xylostella = assay: Mortality test for Plutella xylostella; type: in vivo; details: 144 h
Procedure: as §1, with “Plutella xylostella” for “Spodoptera litura”, “following” for “same”, “formula: Mortality(%)=(number of killed larvae/number of released larvae)×100.” for “formula as that in Test Example 1.”

Nilaparvata lugens = assay: Mortality test for Nilaparvata lugens; type: in vivo; details: 144 h, drug solution 500 ppm, rice leaf sheath immersed, 2 instar larvae, after 6 days
Procedure: (§2) A 10% emulsifiable concentrate of the compound of the present invention (depending on the type of the compound, a 10% wettable powder was subjected to the test) was diluted with water containing a spreader to prepare a drug solution in a concentration of 500 ppm. In this drug solution, a leaf sheath of rice was immersed for about 10 seconds and was air-dried and then put into a test tube. In the test tube, five 2 instar larvae of Nilaparvata lugens per test tube were released and the test tube was capped with a sponge and stored in a thermostatic room of 25° C. The number of killed larvae after 6 days was counted and the mortality was calculated from the same calculation formula as that in Test Example 1. Here, the test was carried out with two replications.

Aulacophora femoralis = assay: Mortality test for Aulacophora femoralis; type: in vivo; details: 144 h
Procedure: as §1, with “of 500” for “of 10”, “of cucumber” for “of cabbage”, “of Aulacophora femoralis” for “of Spodoptera litura”

Eysarcoris lewisi = assay: Mortality test for Eysarcoris lewisi; type: in vivo; details: 48 h, drug solution 500 ppm, rice leaf sheath immersed, 1 instar larvae, after 2 days
Procedure: as §2, with “five 1” for “five 2”, “of Eysarcoris lewisi” for “of Nilaparvata lugens”, “after 2” for “after 6”

Liriomyza trifolii = assay: Mortality test for Liriomyza trifolii; type: in vivo; details: 144 h, drug solution 500 ppm, kidney bean leaf with eggs immersed, killed larvae after 6 days
Procedure: as §2, with “leaf” for “leaf sheath”, “kidney bean on which Liriomyza trifolii laid eggs (10 eggs/leaf) and which was cut out to a diameter of 7 cm” for “rice”, “laid on” for “put into”, “wet filtration paper laid in a styrol cup having an inner diameter” for “test tube. In the test tube, five 2 instar larvae”, “7 cm. The styrol cup” for “Nilaparvata lugens per test tube were released and the test tube”, “capped” for “capped with a sponge”

Homona magnanima = assay: Mortality test for Homona magnanima; type: in vivo; details: 144 h, drug solution 100 ppm, cabbage leaf immersed, 2 instar larvae, after 6 days
Procedure: as §1, with “of 100” for “of 10”, “of Homona magnanima” for “of Spodoptera litura”

[1] = drug solution 100 ppm (mark *), cabbage leaf immersed, 2 instar larvae, after 6 days, read-out: mortality

Compound `CSc1ccc(C2=NOC(c3cc(Cl)cc(Cl)c3)(C(F)(F)F)C2Br)cc1` (stereo not shown) [4-002, 4-bromo-5-(3,5-dichlorophenyl)-3-(4-(methylthio)phenyl)-5-trifluoromethyl-4,5-dihydroisoxazole] has a mortality at 100 ppm (Spodoptera litura; in Brassica oleracea) of no less than 80%, a mortality at 100 ppm (Helicoverpa armigera) of no less than 80% and a mortality at 100 ppm (Plutella xylostella; in Brassica oleracea) of no less than 80%. It also gave a mortality at 500 ppm (Nilaparvata lugens) of no less than 80%.

Compound `Cc1cc(C(/C=C(\c2cc(Cl)cc(Cl)c2)C(F)(F)F)=NO)ccc1C(=O)NCC(F)(F)F` [6-001, 4-((2E)-3-(3,5-dichlorophenyl)-4,4,4-trifluoro-1-(hydroxyimino)-2-butenyl)-2-methyl-N-(2,2,2-trifluoroethyl)benzoic acid amide] has a mortality at 500 ppm (Plutella xylostella; drug solution 500 ppm (mark **), cabbage leaf immersed, 2 instar larvae, after 6 days, read-out: mortality) of no less than 80% and a mortality at 500 ppm (Aulacophora femoralis; drug solution 500 ppm, cucumber leaf immersed, 2 instar larvae, after 6 days, read-out: mortality) of no less than 80%.

Compound `CSC1C(c2ccc(C(=O)NCC(F)(F)F)c(C)c2)=NOC1(c1cc(Cl)cc(Cl)c1)C(F)(F)F` (stereo not shown) [1-005, 4-(5-(3,5-dichlorophenyl)-4-methylthio-5-trifluoromethyl-4,5-dihydroisoxazole-3-yl)-2-methyl-N-(2,2,2-trifluoroethyl)benzoic acid amide] has a mortality at 100 ppm (Spodoptera litura; in Brassica oleracea) of no less than 80% and a mortality at 100 ppm (Plutella xylostella; in Brassica oleracea) of no less than 80%.

In the case of `Cc1cc(C2=NOC(c3cc(Cl)cc(Cl)c3)(C(F)(F)F)C2C)ccc1C(=O)NCC(F)(F)F` (stereo not shown) [1-004, 4-(5-(3,5-dichlorophenyl)-4-methyl-5-trifluoromethyl-4,5-dihydroisoxazole-3-yl)-2-methyl-N-(2,2,2-trifluoroethyl)benzoic acid amide], the mortality at 100 ppm (Spodoptera litura; in Brassica oleracea) is reported as no less than 80%, the mortality at 100 ppm (Plutella xylostella; in Brassica oleracea) is reported as no less than 80% and the mortality at 500 ppm (Eysarcoris lewisi) is reported as no less than 80%. For the same compound, the mortality at 500 ppm (Aulacophora femoralis; in Cucumis sativus) was no less than 80%, the mortality at 500 ppm (Liriomyza trifolii) was no less than 80% and the mortality at 100 ppm (Homona magnanima) was no less than 80%.

Work on `CON=CNC(=O)c1ccc(C2=NOC(c3cc(C(F)(F)F)cc(C(F)(F)F)c3)(C(F)(F)F)C2Br)cc1` (stereo not shown) [1-011, 4-(4-bromo-5-(3,5-bis(trifluoromethyl)phenyl)-5-trifluoromethyl-4,5-dihydroisoxazole-3-yl)-N-(methoxyiminomethyl)benzoic acid amide] yielded a mortality at 100 ppm (Spodoptera litura; in Brassica oleracea) of no less than 80%, a mortality at 100 ppm (Plutella xylostella; in Brassica oleracea) of no less than 80% and a mortality at 500 ppm (Nilaparvata lugens) of no less than 80%.

In the case of `CC1C(c2ccc(CN(C)C(=O)C3CC3)c(Br)c2)=NOC1(c1cc(Cl)cc(Cl)c1)C(F)(F)F` (stereo not shown) [2-005, N-(2-bromo-4-(5-(3,5-dichlorophenyl)-4-methyl-5-trifluoromethyl-4,5-dihydroisoxazole-3-yl)phenylmethyl)-N-(methyl)cyclopropanecarboxamide], the mortality at 500 ppm (Spodoptera litura; in Brassica oleracea) is reported as no less than 80% and the mortality at 500 ppm (Plutella xylostella; in Brassica oleracea) is reported as no less than 80%.

Work on `Cc1cc(C(/C=C(/c2cc(Cl)cc(Cl)c2)C(F)(F)F)=NO)ccc1C(=O)NCC(F)(F)F` [5-001, 4-((2Z)-3-(3,5-dichlorophenyl)-4,4,4-trifluoro-1-(hydroxyimino)-2-butenyl)-2-methyl-N-(2,2,2-trifluoroethyl)benzoic acid amide] yielded a mortality at 100 ppm (Spodoptera litura; [1]) of no less than 80% and a mortality at 100 ppm (Plutella xylostella; [1]) of no less than 80%.

In the case of `O=C(NCc1ccc(C2=NOC(c3cc(Cl)cc(Cl)c3)(C(F)(F)F)C2Br)cc1Br)C1CC1` (stereo not shown) [2-002, N-(2-bromo-4-(4-bromo-5-(3,5-dichlorophenyl)-5-trifluoromethyl-4,5-dihydroisoxazole-3-yl)phenylmethyl)cyclopropylcarboxamide], the mortality at 500 ppm (Nilaparvata lugens) is reported as no less than 80%.

`NC(=O)c1ccc(C2=NOC(c3cc(C(F)(F)F)cc(C(F)(F)F)c3)(C(F)(F)F)C2Br)cc1` (stereo not shown) gave a melting point of 190 to 193 °C.

Work on `Cc1cc(C2=NOC(c3cc(Cl)cc(Cl)c3)(C(F)(F)F)C2Cl)ccc1C(=O)NCC(F)(F)F` (stereo not shown) [1-002, 4-(4-chloro-5-(3,5-dichlorophenyl)-5-trifluoromethyl-4,5-dihydroisoxazole-3-yl)-2-methyl-N-(2,2,2-trifluoroethyl)benzoic acid amide] yielded a mortality at 10 ppm (Spodoptera litura; in Brassica oleracea) of no less than 80% and a mortality at 10 ppm (Plutella xylostella; in Brassica oleracea) of no less than 80%.

For `Cc1cc(C2=NOC(c3cc(Cl)cc(Cl)c3)(C(F)(F)F)C2Br)ccc1C(=O)NCC(F)(F)F` (stereo not shown) [1-003, 4-(4-bromo-5-(3,5-dichlorophenyl)-5-trifluoromethyl-4,5-dihydroisoxazole-3-yl)-2-methyl-N-(2,2,2-trifluoroethyl)benzoic acid amide], the mortality at 100 ppm (Spodoptera litura; in Brassica oleracea) was no less than 80%, the mortality at 100 ppm (Plutella xylostella; in Brassica oleracea) was no less than 80% and the mortality at 500 ppm (Eysarcoris lewisi) was no less than 80%. It also gave a mortality at 500 ppm (Aulacophora femoralis; in Cucumis sativus) of no less than 80%, a mortality at 500 ppm (Liriomyza trifolii) of no less than 80% and a mortality at 500 ppm (Nilaparvata lugens) of no less than 80%.
